Where two headings read alike, the source gives them in different places.
Columns and labels:
[1] = biological target: recombinant SARS-CoV-2 M^pro (Severe acute respiratory syndrome coronavirus 2 (2019-nCoV) (SARS-CoV-2), UniProt P0DTD1); assay: Inhibition of SARS-CoV-2 M^pro enzyme activity (fluorescent substrate assay); type: biochemical; conditions: inhibition of SARS-CoV-2 M^pro enzyme activity, read-out: IC50
[2] = Cytotoxic assay against Vero E6 cells (MTT, 72 h); type: cell-based; conditions: African green monkey
Experimental: The cytotoxicity assessment of compounds was performed against Vero E6 cells. The specific experimental procedures: Vero E6 cells were seeded into a 96-well plate at a cell density of 2×10^4 cells/well, with 100 μL/well, and then incubated overnight at 37° C. in a 5% CO2 incubator. The next day, 100 μL of drug-containing medium was added to each well. The compound was diluted in a 2-fold serial dilution with a top concentration of […], for a total of 6 gradients. Three repeated wells were set for each concentration, and negative controls and blank controls without drugs were included for each experiment. […] All experimental data were analyzed using GraphPad Prism software.

in vivo = conditions: male, Sprague-Dawley, rat, po, 10 mg/kg

SMILES | IC50 ([1]; values in nM) [nM] | other results
C[C@@H](NC(=O)C1CCC(F)(F)CC1)C(=O)N[C@H](Cc1ccccc1)C(=O)C(=O)NCc1ccccn1 [Compound 317] | 16 ± 0.3 | CC50 at 72 h [2]: > 500000 nM
O=C(NCc1ccccn1)C(=O)[C@@H](Cc1ccccc1)NC(=O)[C@H]1COCCN1C(=O)C1CCC(F)(F)CC1 [Compound 288] | 14.6 ± 0.4 | AUC(0-inf) (in vivo): 3500 ± 1250 ng·h/mL; AUC(0-t) (in vivo): 3490 ± 1250 ng·h/mL; Cmax (in vivo): 1140 ± 207 ng/mL; MRT inf (in vivo): 3.59 ± 0.11 h; Tmax (in vivo): 0.75 ± 0.43 h; half-life (in vivo): 3.03 ± 0.36 h
O=C(CCC1CCC(F)(F)CC1)NCC(=O)N[C@H](Cc1ccccc1)C(=O)C(=O)NCc1ccccn1 [Compound 153] | 12 ± 0.6 | AUC(0-inf) (in vivo): 26000 ± 265 ng·h/mL; AUC(0-t) (in vivo): 23500 ± 676 ng·h/mL; Cmax (in vivo): 1980 ± 97.7 ng/mL; MRT inf (in vivo): 7.08 ± 0.25 h; Tmax (in vivo): 1.67 ± 0.58 h; half-life (in vivo): 7.14 ± 0.46 h
O=C(CNC(=O)C1CC12CCC(F)(F)CC2)N[C@H](Cc1ccccc1)C(=O)C(=O)NCc1ccccn1 (stereo partly drawn) [Compound 333] | 13.4 ± 0.2 | AUC(0-inf) (in vivo): 22400 ± 10800 ng·h/mL; AUC(0-t) (in vivo): 18700 ± 9060 ng·h/mL; Cmax (in vivo): 1590 ± 573 ng/mL; MRT inf (in vivo): 7.47 ± 0.38 h; Tmax (in vivo): 0.92 ± 0.95 h; half-life (in vivo): 9.74 ± 0.38 h
O=C(NCc1ccccn1)C(=O)[C@@H](Cc1ccccc1)NC(=O)[C@H]1COCCN1C(=O)[C@H](NC(=O)c1cnccn1)C1CCCCC1 [Compound 290] | 11.3 ± 0.2 | AUC(0-inf) (in vivo): 3120 ± 894 ng·h/mL; AUC(0-t) (in vivo): 3110 ± 894 ng·h/mL; Cmax (in vivo): 722 ± 235 ng/mL; MRT inf (in vivo): 4.16 ± 0.3 h; Tmax (in vivo): 0.5 h; half-life (in vivo): 2.66 ± 0.11 h
CN(OCc1ccccc1)C(=O)N[C@H](Cc1ccccc1)C(=O)C(=O)NCc1ccccn1 [Compound 58, (R)-3-(3-(benzyloxy)-3-methylureido)-2-oxo-4-phenyl-N-(pyridin-2-ylmethyl)butyramide] | 100.9 ± 0.1 | –
O=C(NCc1nccs1)C(=O)[C@@H](Cc1ccccc1)NC(=O)C1(NC(=O)C2CCC(F)(F)CC2)CC(F)(F)C1 [Compound 540] | 26.9 ± 0.1 | –
O=C(NCc1nccs1)C(=O)[C@@H](Cc1ccccc1)NC(=O)[C@H]1COCCN1C(=O)C1CCC(F)(F)C1 (stereo partly drawn) [Compound 409] | 36.6 ± 0.4 | –
C[C@@H](NC(=O)[C@@H]1C[C@@H]2[C@H](C1)C2(F)F)C(=O)N[C@H](Cc1ccccc1)C(=O)C(=O)NCc1nccs1 [Compound 377] | 80 ± 3.6 | –
CC(C)(NC(=O)NC1CCC(F)(F)CC1)C(=O)N[C@H](Cc1ccccc1)C(=O)C(=O)NCc1ccccn1 [Compound 301] | 9.2 ± 0.4 | –
O=C(NCc1ccccn1)C(=O)[C@@H](Cc1ccccc1)NC(=O)C1(NC(=O)c2ccc(F)cc2)CCC1 [Compound 215] | 13.7 ± 0.9 | –
O=C(Cn1cc(-c2cccc(OC(F)(F)F)c2)cn1)N[C@H](Cc1ccccc1)C(=O)C(=O)NCc1nccs1 [Compound 494] | 82.5 ± 3.7 | –
COC[C@@H](NC(=O)c1ccc(F)cc1)C(=O)N[C@H](Cc1ccccc1)C(=O)C(=O)NCc1ccccn1 [Compound 253] | 22.4 ± 1.4 | –
O=C(NCc1nccs1)C(=O)[C@@H](CC1CCCCC1)NC(=O)c1ccccc1 [Compound 468] | – | IC50 ([1]; values given in μM): 10500 ± 630 nM
CC(C)(NC(=O)N1CCC(F)(F)CC1)C(=O)N[C@H](Cc1ccccc1)C(=O)C(=O)NCc1ccccn1 [Compound 302] | 41.5 ± 0.9 | –
C[C@H](OCc1ccccc1)C(=O)N[C@H](Cc1ccccc1)C(=O)C(=O)NCc1ccccn1 [Compound 10] | 113 ± 32.1 | –
O=C(NCc1ccccn1)C(=O)[C@@H](Cc1ccccc1)NC(=O)[C@@H]1[C@H]2CCC[C@H]2CN1C(=O)NC1CCCCC1 [Compound 258] | 93.2 ± 0.6 | –
C[C@@H](NC(=O)C1(c2ccccc2)CC1)C(=O)N[C@H](Cc1ccccc1)C(=O)C(=O)NCc1ccccn1 [Compound 74] | 23.3 ± 0.4 | –
C[C@@H](NC(=O)C1(O)CCCCC1)C(=O)N[C@H](Cc1ccccc1)C(=O)C(=O)NCc1ccccn1 [Compound 107] | 52 ± 0.2 | –

SMILES | IC50 ([1]; values in nM) [nM] | other results
CC(Oc1ccc(C(F)(F)F)cc1)C(=O)N[C@H](C)C(=O)N[C@H](Cc1ccccc1)C(=O)C(=O)NCc1ccccn1 (stereo partly drawn) [Compound 96] | 20.2 ± 0.7 | –
C[C@@H](NC(=O)c1cc(F)cc(C#N)c1)C(=O)N[C@H](Cc1ccccc1)C(=O)C(=O)NCc1ccccn1 [Compound 105] | 25.3 ± 1.7 | –
C[C@@H](NC(=O)CC1CCOCC1)C(=O)N[C@H](Cc1ccccc1)C(=O)C(=O)NCc1ccccn1 [Compound 135] | 57.3 ± 5.3 | –
O=C(NCc1nccs1)C(=O)[C@@H](Cc1ccccc1)NC(=O)C1(NC(=O)C2CCC(F)(F)CC2)CC1 [Compound 538] | 33.5 ± 1.5 | –
O=C(NCc1ccco1)C(=O)[C@@H](Cc1ccccc1)NC(=O)c1ccccc1 [Compound 456] | – | IC50 ([1]; values given in μM): 37200 ± 510 nM
C[C@@H](NC(=O)CC1CCC(F)(F)CC1)C(=O)N[C@H](Cc1ccccc1)C(=O)C(=O)NCc1nccs1 [Compound 373] | 16 ± 0.8 | –
O=C(NCc1ccccn1)C(=O)[C@@H](Cc1ccccc1)NC(=O)C1(NC(=O)c2cc(OC(F)(F)F)ccc2F)CC1 [Compound 165] | 20.3 ± 0.2 | –
O=C(Cn1cc(-c2cc(F)c(F)c(F)c2)cn1)N[C@H](Cc1ccccc1)C(=O)C(=O)NCc1nccs1 [Compound 504] | 47.7 ± 0.9 | –
COc1cccnc1CNC(=O)C(=O)[C@@H](Cc1ccccc1)NC(=O)[C@@H](C)OCc1ccccc1 [Compound 39] | – | IC50 ([1]; values given in μM): > 5000 nM
CC(C)(C(=O)N[C@H](Cc1ccccc1)C(=O)C(=O)NCc1ccccn1)n1cc(-c2ccccc2F)cn1 [Compound 328] | 31.7 ± 0.1 | –
CC(C)(NC(=O)C1CCC(F)(F)CC1)C(=O)N[C@H](Cc1ccccc1)C(=O)C(=O)NCc1nccs1 [Compound 537] | 89.5 ± 1.5 | –
CC(C)(C(=O)N[C@H](Cc1ccccc1)C(=O)C(=O)NCc1ccccn1)n1cc(-c2cccc(F)c2)cn1 [Compound 329] | 19.4 ± 1.8 | –
O=C(NCc1ccccn1)C(=O)[C@@H](Cc1ccccc1)NC(=O)C1(C(=O)NCC2CCC(F)(F)CC2)CC1 [Compound 320] | 16.7 ± 0.3 | –
COC[C@@H](NC(=O)C1CCCC(F)(F)C1)C(=O)N[C@H](Cc1ccccc1)C(=O)C(=O)NCc1ncno1 (stereo partly drawn) [Compound 563] | – | IC50 ([1]; values given in μM): > 2500 nM
C[C@@H](NC(=O)CC1CC1(F)F)C(=O)N[C@H](Cc1ccccc1)C(=O)C(=O)NCc1nccs1 (stereo partly drawn) [Compound 376] | 35.2 ± 3.6 | –
C[C@@H](OCc1ccccc1)C(=O)N[C@H](Cc1ccccc1)C(=O)C(=O)NCc1ccc(C(F)(F)F)cn1 [Compound 38] | 796.3 ± 1.1 | –
O=C(CNC(=O)C1CCCCCC1)N[C@H](Cc1ccccc1)C(=O)C(=O)NCc1cscn1 [Compound 426] | 9.4 ± 0.1 | –
C[C@@H](NC(=O)c1ccccc1)C(=O)N[C@H](Cc1ccccc1)C(=O)C(=O)NCc1ccccn1 [Compound 137, N—((R)-1-(((R)-3,4-dioxo-1-phenyl-4-((pyridin-2-ylmethyl)amino)butan-2-yl)amino)-1-oxopropan-2-yl)benzamide] | 22.1 ± 7.7 | –
C[C@@H](NC(=O)C1CCC(F)(F)CC1)C(=O)N[C@H](CC1CCCCC1)C(=O)C(=O)NCc1ccccn1 [Compound 365] | 23.1 ± 1 | –

SMILES | IC50 ([1]; values in nM) [nM] | other results
O=C(NC1(C(=O)N[C@H](Cc2ccccc2)C(=O)C(=O)NCc2ccccn2)CCC1)O[C@H]1CO[C@H]2OCC[C@H]21 [Compound 315] | 20.2 ± 3.3 | –
C[C@@H](NC(=O)c1ccn(-c2ccccc2)n1)C(=O)N[C@H](Cc1ccccc1)C(=O)C(=O)NCc1nccs1 [Compound 381] | 416.8 ± 4 | –
CC[C@@H](OCc1ccc(F)cc1)C(=O)N[C@H](Cc1ccccc1)C(=O)C(=O)NCc1ccc(Cl)cn1 [Compound 48] | 30.9 ± 0.3 | –
C[C@@H](OCc1cc(F)cc(F)c1)C(=O)N[C@H](Cc1ccccc1)C(=O)C(=O)NCc1ccccn1 [Compound 2] | 17.6 ± 0.4 | –
C[C@@H](NC(=O)c1ccc(F)cc1)C(=O)N[C@H](Cc1ccccc1)C(=O)C(=O)NCc1ccc(Cl)cn1 [Compound 59] | 26.6 ± 1.8 | –
C[C@@H](NC(=O)COC(F)(F)F)C(=O)N[C@H](Cc1ccccc1)C(=O)C(=O)NCc1ccccn1 [Compound 80] | 58.6 ± 3.2 | –
CN(C(=O)C1CCC(F)(F)CC1)C1(C(=O)N[C@H](Cc2ccccc2)C(=O)C(=O)NCc2ccccn2)CCC1 [Compound 194] | 387 ± 30 | –
O=C(NC1CCC(F)(F)CC1)NC1(C(=O)N[C@H](Cc2ccccc2)C(=O)C(=O)NCc2ccccn2)CC1 [Compound 299] | 15.7 ± 0.1 | –
COc1ccnc(CNC(=O)C(=O)[C@@H](Cc2ccccc2)NC(=O)[C@@H](C)NC(=O)C2CCC(F)(F)CC2)c1 [Compound 342] | 22.2 ± 0.2 | –
C[C@@H](NC(=O)C1CCC(F)(F)CC1)C(=O)N[C@H](Cc1ccccc1)C(=O)C(=O)NCc1ccc(C(F)(F)F)cn1 [Compound 344] | 857.2 ± 3.1 | –
CC(C)(C)C(NC(=O)c1ccc(F)cc1)C(=O)N[C@H](Cc1ccccc1)C(=O)C(=O)NCc1ccccn1 (stereo partly drawn) [Compound 252] | 94.9 ± 2.7 | –
COC[C@@H](NC(=O)C1CCC(F)(F)CC1)C(=O)N[C@H](Cc1ccccc1)C(=O)C(=O)NCc1nccs1 [Compound 393] | 88.2 ± 5.6 | –
C[C@@H](NC(=O)CC1CC(F)(F)C1)C(=O)N[C@H](Cc1ccccc1)C(=O)C(=O)NCc1ccccn1 [Compound 134] | 24.5 | –
COc1ccc(CCC(=O)N[C@H](C)C(=O)N[C@H](Cc2ccccc2)C(=O)C(=O)NCc2ccccn2)cc1 [Compound 67] | 17.3 ± 1.6 | –
C[C@@H](NC(=O)COc1cccc(C#N)c1)C(=O)N[C@H](Cc1ccccc1)C(=O)C(=O)NCc1ccccn1 [Compound 115] | 37.8 ± 3 | –
O=C(NCc1ccccn1)C(=O)[C@@H](Cc1ccccc1)NC(=O)C1(NC(=O)C2CCC(F)(F)CC2)CCOC1 (stereo partly drawn) [Compound 228] | 18.1 ± 1.1 | –
C[C@@H](NC(=O)c1cccnc1)C(=O)N[C@H](Cc1ccccc1)C(=O)C(=O)NCc1ccccn1 [Compound 142] | – | IC50 ([1]; values given in μM): 1210 ± 890 nM
CC(C)(NC(=O)C(=O)c1ccccc1)C(=O)N[C@H](Cc1ccccc1)C(=O)C(=O)NCc1ccccn1 [Compound 179] | 14.5 ± 1.9 | –
